Results on two compounds are retold here after patent US20190230931A1, “SURFACE TREATMENTS” (priority 2014, published 2019).

Molecules are shown by their SMILES. Values after ≈ are worked out from the molar mass of the structure shown. Like-named read-outs stand apart in the source and are kept apart here.

Common to all, as to format: cell-based
For assay [1], the system named is Pseudomonas aeruginosa clinical isolate. As to the kind of experiment: Susceptibility of clinical isolates by broth microdilution (MIC/MBC). Particulars: for MBC: broth microdilution and plating, read-out: Minimum bactericidal concentration (MBC); for MIC: broth microdilution, 37° C., 18 hours, read-out: Minimum inhibitory concentration (MIC). The protocol:
(§1) Frozen stocks of the Staphylococcus sp. inocula were thawed at 37° C. for 10 minutes and vortexed before plating on blood agar and incubating at 37° C. for 18 hours. Single colonies were used to inoculate a volume of 10 mL of Mueller-Hinton Broth (MHB) and incubated at 37° C. for 18 hours in a shaking incubator (200 rpm). A volume of 100 μL of the actively growing culture was then used to inoculate a volume of 100 mL of MHB and incubated at 37° C. for 6½ hours. […] A volume of 100 μL of each dilution step was spread on plate count agar (PCA) plates and incubated at 37° C. for 18 hours to confirm viable cell numbers. The dilution to 10^−7 was used in the following steps.
(§2) The susceptibility of clinical isolates of Staphylococcus aureus, Escherichia coli and Pseudomonas aeruginosa to the constructs designated Spm-Ad-DOPE (9a) and NCSeCH2CO—CMG(2)-Ad-DOPE was determined by broth microdilution. Actively growing cultures of each clinical isolate were prepared as described above to obtain cultures with the following turbidities (OD600):
(§3) Serial dilutions of each culture to 10^−6 were prepared and used as inocula. Volumes of 50 μL of each dilution was spread on PCA plates and incubated at 37° C. for 18 hours. A two-fold dilution series for each of the two constructs, spermine (2) and selenous acid (H2SeO3) were prepared in sterile 96-well plates. Volumes of 50 μL of inocula were dispensed into a well containing a volume of 50 μL of the serially diluted construct, spermine (2) or selenous acid (H2SeO3). Following gentle mixing the plates were incubated in the dark at 37° C. for 18 hours (200 rpm). Minimum inhibitory concentrations (MIC) were thereby observed and minimum bactericidal concentrations (MBC) determined by plating aliquots from each well.

For assay [2], the system named is Escherichia coli clinical isolate. The description is as above. Particulars: for MBC: broth microdilution and plating, read-out: Minimum bactericidal concentration (MBC); for MIC: broth microdilution, 37° C., 18 hours, read-out: Minimum inhibitory concentration (MIC). The procedure: as §1, §2, §3
(In general: Dilution methods test growth across graded concentrations, often in twofold steps.)

The subject of assay [3] is Staphylococcus aureus clinical isolate. Described as above. Particulars: for MBC: broth microdilution and plating, read-out: Minimum bactericidal concentration (MBC); for MIC: broth microdilution, 37° C., 18 hours, read-out: Minimum inhibitory concentration (MIC). The procedure:
as §1, §2, §3

The subject of assay [4] is Red blood cells (RBCs; group O). As to the kind of experiment: Adherence of red blood cells to treated microplate well surfaces.
Description: A stock solution of the construct designated Spm-Ad-DOPE (9a) was prepared in methanol at a concentration of 10 mg/mL. The stock solution was diluted to a concentration of 250 μg/mL in methanol and 25 μL volumes of the diluted stock solutions dispensed into each of the round bottomed wells of a multi-well microplate (Corning Inc.). The plates were allowed to dry before washing the wells 6 times with deionized water.
Red blood cells (RBCs; group O, up to 2 weeks old) were washed and re-suspended at a concentration of 1% packed cell volume (pcv) in phosphate-buffered saline (PBS). A 50 μL volume of the suspension of RBCs was dispensed into each of the wells and incubated for 1 hour at room temperature before washing 6 times with PBS. The RBCs were fixed by adding a 50 μL volume of a solution of glutaraldehyde in PBS at a concentration of 2.5% (w/v) and incubating for 10 minutes before washing each well with water and allowing to dry. The RBCs were lysed by adding a 50 μL volume of deionized water and incubating for 10 minutes before discarding the water and allowing to dry.
For scanning electron microscopy (SEM) the bottom of each well was cut from the plate and the treated surface sputter coated with platinum prior to imaging.
A two-fold serial dilution from each of the first wells was then performed. […]

For the compound `NCCCNCCCCNCCCN` [Spermine (2), spermine], the values for the MBC in assay [1] (Pseudomonas aeruginosa), in assay [2] (Escherichia coli) and in assay [3] (Staphylococcus aureus) were greater than 3790 µM, 118 µM (≈ 23.9 µg/mL) and 947 µM (≈ 192 µg/mL), respectively. The figures for the MIC in assay [1] (Pseudomonas aeruginosa), in assay [2] (Escherichia coli) and in assay [3] (Staphylococcus aureus) were 3.79 mM (≈ 766 µg/mL), 118 µM (≈ 23.9 µg/mL) and 473 µM (≈ 95.8 µg/mL), respectively. Further, the “Attachment of RBCs to treated wells” value was “not uniform or reproducible” in assay [4] (spermine alone) and “No cells were observed to adhere to the surface” in assay [4] (spermine alone in water).
Consider `O=[Se](O)O` [H2SeO3, selenous acid], for which the MBC in assay [1], in assay [2] and in assay [3] was greater than 1985.01 µM in each case. The MIC in assay [1] was greater than 1.98501 mM; in assay [2], 1985.01 µM (≈ 256 µg/mL); in assay [3], 1985.01 µM (≈ 256 µg/mL).
